Where two headings read alike, the source gives them in different places.
Assays:
SmChiA = biological target: T1, SmChiA (Serratia marcescens, UniProt P07254); assay: Chitinase inhibition assay and Ki determination (MU-β-(GlcNAc)2 substrate, Dixon plot), SmChiA; assay type: biochemical; settings: for Ki: Dixon plot, three substrate concentrations; for inhibition at 10 µM: 10 μM inhibitor, 10 nM enzyme, 4 μM MU-β-(GlcNAc)2, pH 6.0, 30 °C, 20 min
T1 construct: made in house; host or cells: Escherichia coli BL21(DE3)
Protocol: (§1) SmChiA was expressed in Escherichia coli BL21(DE3), HsChit1 and OfChi-h were overexpressed in Pichia pastoris GS115. The Escherichia coli BL21(DE3) strain was purchased from TaKaRa Biotech (Dalian, […]) while the Pichia pastoris GS115 strain was obtained from Invitrogen (Thermo Fisher Scientific, CA, USA), both of which were cultured and handled according to the protocols provided by suppliers. All chitinases were purified using immobilised metal ion affinity chromatography as previously described. Briefly, solid ammonium sulphate was slowly added to the culture supernatant to achieve 75% saturation. After incubation at 4 °C for 24 h, the precipitated proteins were collected by centrifugation at 12,000 × g for 30 min at 4 °C. The pellet was resuspended thoroughly in buffer A (20 mM sodium phosphate, 0.5 M sodium chloride, pH 7.4), and the solution was centrifuged again at 12,000 × g for 15 min at 4 °C to remove insoluble material. The clarified supernatant was loaded onto a 5 ml HisTrap™ Crude affinity column (GE Healthcare) that had been pre-equilibrated with buffer A. The column was subsequently washed with buffer A containing 75 mM imidazole to remove non-specifically bound proteins. Recombinant chitinases were eluted using buffer A containing 250 mM imidazole. The expressed proteins were quantified using a BCA protein assay kit (TaKaRa Biotech, China). And their purities were determined by SDS-PAGE and found to be >95% in all cases.
(§2) Chitinase activities for SmChiA, HsChit1 and OfChi-h were determined using 4-methylumbelliferyl-N, N′-diacetyl-β-D-chitobioside (MU-β-(GlcNAc)2) (purchased from Sigma) as a substrate. The final reaction mixture volume used for inhibitor screening was 100 μL, consisting of 10 nM enzyme, 4 μM MU-β-(GlcNAc)2, 10 μM inhibitor, and 2% DMSO in a 20 mM sodium phosphate buffer (pH 6.0). The reaction in the absence of inhibitor was used as a positive control. After incubation at 30 °C for 20 min, 0.5 M sodium carbonate was added to the reaction mixture, and the fluorescence produced by the released 4-MU was quantified with a Varioskan Flash microplate reader (Thermo Fisher Scientific) using excitation and emission wavelengths of 360 and 450 nm, respectively. Experiments were performed in triplicate unless specified otherwise. For Ki value determination, the inhibitor concentration was varied in the above reaction, and different concentrations of substrate (2–8 μM) were used. The amount of released 4-MU was quantified as above, and the Ki value and the mode of inhibition were determined using the Dixon plot.

OfChi-h [1] = biological target: T2, OfChi-h (Ostrinia furnacalis, UniProt Q4AE59); settings: read-out: OfChi-h Ki; cited from earlier work
T2 construct: made in house; host or cells: Pichia pastoris GS115

OfChi-h [2] = biological target: T2, OfChi-h; assay: Chitinase inhibition assay and Ki determination (MU-β-(GlcNAc)2 substrate, Dixon plot), OfChi-h; assay type: biochemical; settings: for inhibition at 10 µM: 10 μM inhibitor, 10 nM enzyme, 4 μM MU-β-(GlcNAc)2, pH 6.0, 30 °C, 20 min; for Ki: Dixon plot, substrate 2–8 μM
Protocol: as §1, §2

HsChit1 = biological target: T3, HsChit1 (Homo sapiens, UniProt Q13231); assay: Chitinase inhibition assay and Ki determination (MU-β-(GlcNAc)2 substrate, Dixon plot), HsChit1; assay type: biochemical; settings: three substrate concentrations
T3 construct: made in house; host or cells: Pichia pastoris GS115
Protocol: SmChiA was expressed in Escherichia coli BL21(DE3), HsChit1 and OfChi-h were overexpressed in Pichia pastoris GS115. The Escherichia coli BL21(DE3) strain was purchased from TaKaRa Biotech (Dalian, […]) while the Pichia pastoris GS115 strain was obtained from Invitrogen (Thermo Fisher Scientific, CA, USA), both of which were cultured and handled according to the protocols provided by suppliers. All chitinases were purified using immobilised metal ion affinity chromatography as previously described. Briefly, solid ammonium sulphate was slowly added to the culture supernatant to achieve 75% saturation. After incubation at 4 °C for 24 h, the precipitated proteins were collected by centrifugation at 12,000 × g for 30 min at 4 °C. […] The expressed proteins were quantified using a BCA protein assay kit (TaKaRa Biotech, China). And their purities were determined by SDS-PAGE and found to be >95% in all cases.
Chitinase activities for SmChiA, HsChit1 and OfChi-h were determined using 4-methylumbelliferyl-N, N′-diacetyl-β-D-chitobioside (MU-β-(GlcNAc)2) (purchased from Sigma) as a substrate. […] After incubation at 30 °C for 20 min, 0.5 M sodium carbonate was added to the reaction mixture, and the fluorescence produced by the released 4-MU was quantified with a Varioskan Flash microplate reader (Thermo Fisher Scientific) using excitation and emission wavelengths of 360 and 450 nm, respectively. […]

T2 sequence (Q4AE59 18-553): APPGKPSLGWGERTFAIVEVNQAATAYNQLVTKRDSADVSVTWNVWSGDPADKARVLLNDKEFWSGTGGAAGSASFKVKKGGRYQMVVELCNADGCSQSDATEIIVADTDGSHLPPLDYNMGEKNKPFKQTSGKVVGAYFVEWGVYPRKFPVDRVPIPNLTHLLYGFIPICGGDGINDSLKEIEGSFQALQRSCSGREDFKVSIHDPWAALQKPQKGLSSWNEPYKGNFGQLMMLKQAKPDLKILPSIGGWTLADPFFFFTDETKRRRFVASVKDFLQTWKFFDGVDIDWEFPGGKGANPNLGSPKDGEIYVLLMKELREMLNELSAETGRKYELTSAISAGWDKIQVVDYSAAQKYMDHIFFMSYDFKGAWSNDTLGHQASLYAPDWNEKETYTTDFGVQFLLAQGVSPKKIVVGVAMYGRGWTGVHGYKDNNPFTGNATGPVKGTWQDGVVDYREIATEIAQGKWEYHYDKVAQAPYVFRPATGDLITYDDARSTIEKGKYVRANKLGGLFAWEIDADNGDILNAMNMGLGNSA
T1 sequence (P07254 24-563): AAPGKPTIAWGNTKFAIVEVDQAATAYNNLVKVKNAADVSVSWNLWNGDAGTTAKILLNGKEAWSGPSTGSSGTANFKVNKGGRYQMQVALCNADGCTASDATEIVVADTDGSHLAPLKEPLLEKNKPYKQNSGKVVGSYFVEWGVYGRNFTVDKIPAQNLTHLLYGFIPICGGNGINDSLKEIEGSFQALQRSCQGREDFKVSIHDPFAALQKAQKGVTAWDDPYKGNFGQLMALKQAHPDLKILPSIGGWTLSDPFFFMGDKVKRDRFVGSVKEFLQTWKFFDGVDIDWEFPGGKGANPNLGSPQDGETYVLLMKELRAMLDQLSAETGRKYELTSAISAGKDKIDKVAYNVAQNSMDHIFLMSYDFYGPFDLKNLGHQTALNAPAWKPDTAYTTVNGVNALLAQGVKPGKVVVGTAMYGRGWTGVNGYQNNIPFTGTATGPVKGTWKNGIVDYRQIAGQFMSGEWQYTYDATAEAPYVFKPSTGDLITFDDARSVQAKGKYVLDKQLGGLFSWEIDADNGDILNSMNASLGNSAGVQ
T3 sequence (Q13231 22-466): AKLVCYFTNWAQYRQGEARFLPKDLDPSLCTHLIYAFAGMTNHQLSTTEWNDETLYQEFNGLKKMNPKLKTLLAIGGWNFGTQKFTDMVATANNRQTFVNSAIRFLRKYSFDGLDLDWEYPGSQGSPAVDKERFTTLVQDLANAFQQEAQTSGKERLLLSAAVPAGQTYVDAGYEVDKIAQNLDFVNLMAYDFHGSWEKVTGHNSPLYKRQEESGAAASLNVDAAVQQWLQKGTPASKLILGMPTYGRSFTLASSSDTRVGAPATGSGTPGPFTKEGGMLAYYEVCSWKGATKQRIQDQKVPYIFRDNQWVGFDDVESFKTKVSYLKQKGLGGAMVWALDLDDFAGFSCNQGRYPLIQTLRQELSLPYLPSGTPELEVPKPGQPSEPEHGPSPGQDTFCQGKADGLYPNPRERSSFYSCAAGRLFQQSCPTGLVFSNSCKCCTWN

Cc1cccn2c(=O)c3cc(C(=O)NCc4cccnc4)c(N)nc3nc12 [5a, reference compound]
Ki (SmChiA): 6.19 ± 0.155 µM
Ki (OfChi-h [1]): 860 nM

Cc1cccn2c(=O)c3cc4c(=O)n(Cc5cccnc5)cnc4nc3nc12 [6a]
inhibition at 10 µM (OfChi-h [2]): 99.3 ± 0.2%
Improvement in inhibitory activity against OfChi-h (Ki) compared to 5a (OfChi-h [2]; 6a Ki versus 5a Ki): approximately 15 fold
Ki (OfChi-h [2]): 58 nM
inhibition at 10 µM (SmChiA): 98.5 ± 0.2%
Ki (SmChiA): 0.126 µM
Ki (HsChit1): 295 nM

Cc1cccn2c(=O)c3cc4c(=O)n(C(C)c5cccnc5)cnc4nc3nc12 (stereo not shown) [6b]
inhibition at 10 µM (OfChi-h [2]): 96.8 ± 0.1%
Ki (OfChi-h [2]): 215 nM
inhibition at 10 µM (SmChiA): 88.7 ± 2.2%

Cc1cccn2c(=O)c3cc4c(=O)n(Cc5cnccn5)cnc4nc3nc12 [6c]
inhibition at 10 µM (OfChi-h [2]): 95.3 ± 0.5%
Ki (OfChi-h [2]): 294 nM
inhibition at 10 µM (SmChiA): 91.5 ± 0.8%

Cc1cccn2c(=O)c3cc4c(=O)n(Cc5ccccc5)cnc4nc3nc12 [6d]
inhibition at 10 µM (OfChi-h [2]): 72.5 ± 2.4%
Ki (OfChi-h [2]): 1420 nM
inhibition at 10 µM (SmChiA): 32 ± 1.4%

COc1cc(Cn2cnc3nc4nc5c(C)cccn5c(=O)c4cc3c2=O)cc(OC)c1OC [6e]
inhibition at 10 µM (OfChi-h [2]): 96.2 ± 0.3%
Ki (OfChi-h [2]): 65 nM
inhibition at 10 µM (SmChiA): 28.2 ± 4.8%

COc1ccc(Cn2cnc3nc4nc5c(C)cccn5c(=O)c4cc3c2=O)cc1OC [6f]
inhibition at 10 µM (OfChi-h [2]): 69.3 ± 4.4%
Ki (OfChi-h [2]): 747 nM
inhibition at 10 µM (SmChiA): 34.2 ± 2.5%

COc1ccc(Cn2cnc3nc4nc5c(C)cccn5c(=O)c4cc3c2=O)cc1 [6g]
inhibition at 10 µM (OfChi-h [2]): 74 ± 2%
Ki (OfChi-h [2]): 1030 nM
inhibition at 10 µM (SmChiA): 30.3 ± 2.7%

Cc1cccn2c(=O)c3cc4c(=O)n(Cc5cccc(N)c5)cnc4nc3nc12 [6h]
inhibition at 10 µM (OfChi-h [2]): 89 ± 1.5%
Ki (OfChi-h [2]): 276 nM
inhibition at 10 µM (SmChiA): 37.9 ± 0.4%

Cc1cccn2c(=O)c3cc4c(=O)n(Cc5ccc(Cl)c(F)c5)cnc4nc3nc12 [6i]
inhibition at 10 µM (OfChi-h [2]): 42.9 ± 1%
Ki (OfChi-h [2]): 2890 nM
inhibition at 10 µM (SmChiA): 31.7 ± 0.2%

Cc1cccn2c(=O)c3cc4c(=O)n(CCc5c[nH]c6ccccc56)cnc4nc3nc12 [6j]
inhibition at 10 µM (OfChi-h [2]): 49.6 ± 2.2%
inhibition at 10 µM (SmChiA): 42.4 ± 4.1%

Cc1cccn2c(=O)c3cc4c(=O)n(Cc5ccco5)cnc4nc3nc12 [6k]
inhibition at 10 µM (OfChi-h [2]): 86.8 ± 0.8%
Ki (OfChi-h [2]): 1510 nM
inhibition at 10 µM (SmChiA): 47.5 ± 1.2%

C#CCn1cnc2nc3nc4c(C)cccn4c(=O)c3cc2c1=O [6l]
inhibition at 10 µM (OfChi-h [2]): 81 ± 0.8%
Ki (OfChi-h [2]): 1340 nM
inhibition at 10 µM (SmChiA): 37.5 ± 2.2%
